Test results from patent US20210355539A1, “BIOMARKERS FROM MINIMALLY INVASIVE SAMPLING REFLECTIVE OF THE PLACENTAL IMMUNE MICROENVIRONMENT” (NEW YORK UNIVERSITY, priority 2020, published 2021).
Where two headings read alike, the source gives them in different places.

Assays:
term placental explants = assay: Term placental explants treated with LPS and Cytochalasin-D, TNF-α ELISA; assay type: cell-based, human; settings: 2 LPS doses and Cytochalasin-D (9.8 uM)
Excerpt: Human first and second trimester placentas from elective termination of normal pregnancies (8 to 23 weeks gestation) were collected. The second trimester placenta samples were obtained after elective terminations induced by mechanical evacuation only. Human first and second trimester and term placentas were also collected from vaginal delivery or C-section. A placental explant system was used to preserve the normal cellular architecture. Placental samples from term and third trimester were collected from the maternal side as previously described (Kim et al., 2018, Am J Reprod Immunol, December 26: e13080). Placental explants were processed immediately after collection and prepared as previously described (Peltier et al., 2013, Am J Reprod Immunol, 69: 142e149). […]
Supernatant cytokine concentrations were analyzed using Ready-Set-Go™ ELISA kits (eBioscience; San Diego, Calif.). The measured cytokines included TNF-a, IL-1b and IL-10 and the concentrations were expressed in pg/ml.
For this reason, the kit was utilized for all of the following experiments to isolate EVs. […] Media were collected and analyzed. […] THP-1 cell culture media was collected after 24 h, and TNF-α levels were analyzed by ELISA (FIG. 2E). […]

human placenta = settings: cited from earlier work

SMILES	TNF-α production (term placental explants)	effect on LPS induced inflammation and TNF-α production (human placenta; Speer et al., 2017, listed as pentoxifylline)	effect on LPS induced inflammation and TNF-α production (human placenta; Speer et al., 2017)
C=C1[C@@H](C)[C@H]2[C@H](Cc3ccccc3)NC(=O)[C@]23[C@H](OC(C)=O)/C=C/[C@@](C)(O)C(=O)[C@@H](C)C/C=C/[C@H]3[C@@H]1O [Cytoclasin-D, Cytochalasin-D]	18979 ± 7626 pg/mL		
CC(=O)CCCCn1c(=O)c2c(ncn2C)n(C)c1=O [Pentoxixyline, pentoxifylline]		inhibits LPS induced TNF-α	inhibited LPS induced inflammation and TNF-α production
